Measured values: article PMC13261364 (International journal of biological macromolecules, 2025)
Read-outs that look alike come from different tables or passages of the source.

Tests used:
[1] = target: PaCAγ1 (Pseudomonas aeruginosa, UniProt Q9HT34); assay: biochemical; settings: Stopped-Flow assay, mean from 3 different assays
[2] = target: hCA I (Homo sapiens, UniProt P00915); assay: Stopped-flow CO2 hydration inhibition assay, hCA I; assay type: biochemical
[3] = target: hCA II (Homo sapiens, UniProt P00918); assay: Stopped-flow CO2 hydration inhibition assay, hCA II; assay type: biochemical; settings: mean from 3 different assays, errors ±5–10 %
[4] = test system: PaCAγ1; assay: biochemical; settings: Selectivity Index, ratio of KI
[5] = target: psCA1; settings: read-out: KI psCA1; 20 °C, 10 mM Tris buffer, 20 mM NaClO4 pH 8.3; ref [52]; cited from earlier work
[6] = test system: Neisseria gonorrhoeae; set-up: method as in PMID 33765392, PMID 34894972; settings: treatment with CA inhibitor; no apparent development of resistance; ref [35],[36]; cited from earlier work
[7] = test system: Helicobacter pylori; settings: without triggering resistance; ref [37]; cited from earlier work
[8] = target: the molecule itself; assay: SEC-MALS; SEC-MALS-QELS; 700 μg of purified protein loaded on the SEC s75 column, 20 mM TRIS, 150 mM NaCl, pH 8.5, flow rate 0.5 mL/min
[9] = Stopped-Flow assay, mean from 3 different assays, errors ±5–10 %, read-out: KI hCA I

Chain of hCA I (P00915 whole entry): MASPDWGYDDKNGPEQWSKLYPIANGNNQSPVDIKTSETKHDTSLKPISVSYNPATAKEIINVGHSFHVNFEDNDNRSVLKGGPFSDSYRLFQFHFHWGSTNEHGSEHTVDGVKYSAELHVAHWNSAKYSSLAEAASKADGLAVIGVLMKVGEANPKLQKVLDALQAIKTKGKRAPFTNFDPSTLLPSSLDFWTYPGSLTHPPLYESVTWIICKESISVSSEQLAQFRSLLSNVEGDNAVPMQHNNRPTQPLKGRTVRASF

| Molecule | Ki [1] | further results |
| --- | --- | --- |
| Nc1ccc(S(N)(=O)=O)cc1 [Compound 2] | 155 ± 5.23 nM |  |
| NS(=O)(=O)c1cccc(S(N)(=O)=O)c1 [Compound 5] | 561 ± 32.4 nM | Ki [2, 9]: 25000 nM |
| NS(=O)(=O)c1ccc(C(=O)O)cc1 [Compound 18] | 793 ± 46.2 nM |  |
| Nc1ccc(S(N)(=O)=O)cc1Cl [Compound 8] | 697 ± 44.7 nM |  |
| Nc1nnc(S(N)(=O)=O)s1 [Compound 13] | 72.6 ± 3.43 nM |  |
| Nc1nccc(Nc2ccc(S(N)(=O)=O)cc2)n1 [Compound 19] | 1320 nM |  |
| NC(N)=Nc1nc(CSCC/C(N)=N/S(N)(=O)=O)cs1 [FAM] | 2690 nM | Ki [3]: 58 nM; Ki [2, 9]: 922 nM; SI hCA I/PaCAγ1 [4]: 0.3; SI hCA II/PaCAγ1 [4]: 0.02 |
| NS(=O)(=O)c1cc(Cl)cc(Cl)c1O [Compound 10] | 9670 nM |  |
| Nc1ccc(S(=O)(=O)NCc2ccc(S(N)(=O)=O)cc2)cc1 [Compound 23] | 828 ± 51.7 nM |  |
| O=C1NS(=O)(=O)c2ccccc21 [SAC] | 13800 nM |  |
| NCc1ccc(S(N)(=O)=O)cc1 [Compound 3] | 132 ± 8.86 nM |  |
| Nc1cccc(S(N)(=O)=O)c1 [ABS, 3-amino-benzene suldonamide] |  | Ki [5]: 19 nM |
| Nc1ccc(S(N)(=O)=O)cc1F [Compound 7] | 325 ± 13.8 nM |  |
| NS(=O)(=O)c1cc(Cl)c(Cl)c(S(N)(=O)=O)c1 [DCP] | 5680 nM |  |
| NS(=O)(=O)c1ccc(O)cc1 [Compound 15] | 209 ± 9.19 nM |  |
| Cn1nc(S(N)(=O)=O)sc1=N [Compound 14] | 97.1 ± 5.32 nM |  |
| Cc1ccc(S(N)(=O)=O)cc1 [Compound 6] | 266 ± 14.2 nM | Ki [2]: 21000 nM |
| Nc1ccc(S(=O)(=O)Nc2nnc(S(N)(=O)=O)s2)cc1 [Compound 20] | 244 ± 16.2 nM |  |
| NS(=O)(=O)Cc1noc2ccccc12 [ZNS] | 4170 nM |  |
| CC(=O)/N=c1/sc(S(N)(=O)=O)nn1C [MZA] | 68.4 ± 2.93 nM |  |

| Molecule | Ki [1] | further results |
| --- | --- | --- |
| CCN[C@H]1CN(CCCOC)S(=O)(=O)c2sc(S(N)(=O)=O)cc21 [BRZ] | 307 ± 13.1 nM |  |
| NS(=O)(=O)c1nnc(NS(=O)(=O)c2ccccc2)s1 [BZA] | 290 ± 14.4 nM |  |
| Nc1cccc(S(N)(=O)=O)c1 [Compound 1] | 189 ± 7.11 nM |  |
| NS(=O)(=O)c1ccc(CCO)cc1 [Compound 17] | 419 ± 17.7 nM |  |
| Nc1ccc(S(=O)(=O)NCCc2ccc(S(N)(=O)=O)cc2)cc1 [Compound 24] | 584 ± 22.2 nM |  |
| Nc1ccc(S(N)(=O)=O)cc1Br [Compound 9] | 3490 nM |  |
| NS(=O)(=O)c1ccc(S(=O)(=O)Nc2cccc3c(Cl)c[nH]c23)cc1 [IND] | 453 ± 20.1 nM |  |
| Nc1ccc(S(=O)(=O)Nc2ccc(S(N)(=O)=O)cc2)cc1 [Compound 22] | 386 ± 19.3 nM |  |
| NS(=O)(=O)c1ccc(CCNS(=O)(=O)c2ccc([N+](=O)[O-])cc2CO)cc1 [Compound 21] | 564 ± 32.9 nM |  |
| CC(=O)Nc1nnc(S(N)(=O)=O)s1 [AAZ, acetazolamide] |  | effect on N. gonorrhoeae [6]: long-lasting bacteriostatic effects |
| Nc1cc(C(F)(F)F)c(S(N)(=O)=O)cc1S(N)(=O)=O [Compound 11] | 3670 nM |  |
| Cc1onc(-c2ccccc2)c1-c1ccc(S(N)(=O)=O)cc1 [VLX] | > 100000 nM |  |
| NS(=O)(=O)c1ccc(CO)cc1 [Compound 16] | 533 ± 25.8 nM |  |
| NS(=O)(=O)NCCNc1nonc1/C(=N\c1ccc(F)c(Br)c1)NO [EPC] | 5320 nM | Ki [3]: 917 nM; Ki [2, 9]: 8260 nM; SI hCA I/PaCAγ1 [4]: 1.6; SI hCA II/PaCAγ1 [4]: 0.2 |
| NS(=O)(=O)c1ccc(N2CCCCS2(=O)=O)cc1 [SLT] | 356 ± 23.8 nM |  |
| CCOc1ccc2nc(S(N)(=O)=O)sc2c1 [EZA, ethoxzolamide] |  | effect on H. pylori growth [7]: inhibited bacterial growth; effect on N. gonorrhoeae [6]: long-lasting bacteriostatic effects |
| CC1(C)O[C@@H]2[C@@H](CO[C@@]3(COS(N)(=O)=O)OC(C)(C)O[C@@H]23)O1 [TPM] | > 100000 nM |  |
| NS(=O)(=O)c1cc2c(cc1Cl)NCNS2(=O)=O [HTC] | 6600 nM | SI hCA I/PaCAγ1 [4]: 0.05; SI hCA II/PaCAγ1 [4]: 0.04 |
| Nc1cc(Cl)c(S(N)(=O)=O)cc1S(N)(=O)=O [Compound 12] | 6090 nM |  |
| PaCAγ1, γ-class carbonic anhydrase from Pseudomonas aeruginosa PAO1 (PA5540) (enzyme, UniProt Q9HT34 1-186, looked up, PaCAγ1, γ-class carbonic anhydrase encoded by PA5540 of P. aeruginosa PAO1; synthetic gene in pET21d; The initiator methionine is absent in the purified protein by LC-MS; source: E. coli BL21 (DE3), purified (His Trap HP, SEC Superdex 75); not shown: His6, C-terminal, kept) MIRKNPSGDLPVIDESAYVDKTAIICGKVIIQANVFVGPYAVIRADEVDADGGMQPIVIGANSNIQDGVVIHSKSGAAVTIGEHSSIAHRSIVHGPCEVGDRVFIGFNSVLFNCRVGDGCVVRHNAVVDGCDLPAGFYVPSTERIGPRTDLASMPRVSVSASEFSEDVARTNVDLVRGYKSLQNEF |  | stoichiometry N [8]: 3 |
